Reference: US20130131057A1, “NEW BICYCLIC COMPOUNDS AS PI3-K AND MTOR INHIBITORS” (CENTRO NACIONAL DE INVESTIGACIONES ONCOLOGICAS (CNIO, priority 2010, published 2013)
“And” between values parts separate entries of the source, which are not always exact repeats. Identical values can stand only once.

biological target: T1, PI3K (p110α/p85α) (Homo sapiens, UniProt P42336); test: PI3K activity assay (ADP Hunter Plus); format: biochemical; settings: read-out: PI3Kα IC50
T1 construct: purchased Carna Biosciences 07CBS-0402A
Experimental: The kinase activity was measured by using the commercial ADP Hunter™ Plus assay available from DiscoveRx, (#33-016), which is a homogeneous assay to measure the accumulation of ADP, a universal product of kinase activity. The enzyme, PI3K (p110α/p85α, was purchased from Carna Biosciences (#07CBS-0402A). The assay was done following the manufacturer recommendations with slight modifications: Mainly the kinase buffer was replace by 50 mM HEPES, pH 7.5, 3 mM MgCl2, 100 mM NaCl, 1 mM EGTA, 0.04% CHAPS, 2 mM TCEP and 0.01 mg/ml BGG. The PI3K was assayed in a titration experiment to determine the optimal protein concentration for the inhibition assay. To calculate the IC50 of the ETP-compounds, serial 1:5 dilutions of the compounds were added to the enzyme at a fixed concentration (2.5 μg/ml. The enzyme was preincubated with the inhibitor and 30 μM PIP2 substrate (P9763, Sigma) for 5 min and then ATP was added to a final 50 μM concentration. Reaction was carried out for 1 hour at 25° C. Reagent A and B were sequentially added to the wells and plates were incubated for 30 min at 37° C. Fluorescence counts were read in a Victor instrument (Perkin Elmer) with the recommended settings (544 and 580 nm as excitation and emission wavelengths, respectively). Values were normalized against the control activity included for each enzyme (i.e., 100% PI3 kinase activity, without compound). These values were plot against the inhibitor concentration and were fit to a sigmoid dose-response curve by using the Graphad software.

T1 sequence (P42336 whole entry): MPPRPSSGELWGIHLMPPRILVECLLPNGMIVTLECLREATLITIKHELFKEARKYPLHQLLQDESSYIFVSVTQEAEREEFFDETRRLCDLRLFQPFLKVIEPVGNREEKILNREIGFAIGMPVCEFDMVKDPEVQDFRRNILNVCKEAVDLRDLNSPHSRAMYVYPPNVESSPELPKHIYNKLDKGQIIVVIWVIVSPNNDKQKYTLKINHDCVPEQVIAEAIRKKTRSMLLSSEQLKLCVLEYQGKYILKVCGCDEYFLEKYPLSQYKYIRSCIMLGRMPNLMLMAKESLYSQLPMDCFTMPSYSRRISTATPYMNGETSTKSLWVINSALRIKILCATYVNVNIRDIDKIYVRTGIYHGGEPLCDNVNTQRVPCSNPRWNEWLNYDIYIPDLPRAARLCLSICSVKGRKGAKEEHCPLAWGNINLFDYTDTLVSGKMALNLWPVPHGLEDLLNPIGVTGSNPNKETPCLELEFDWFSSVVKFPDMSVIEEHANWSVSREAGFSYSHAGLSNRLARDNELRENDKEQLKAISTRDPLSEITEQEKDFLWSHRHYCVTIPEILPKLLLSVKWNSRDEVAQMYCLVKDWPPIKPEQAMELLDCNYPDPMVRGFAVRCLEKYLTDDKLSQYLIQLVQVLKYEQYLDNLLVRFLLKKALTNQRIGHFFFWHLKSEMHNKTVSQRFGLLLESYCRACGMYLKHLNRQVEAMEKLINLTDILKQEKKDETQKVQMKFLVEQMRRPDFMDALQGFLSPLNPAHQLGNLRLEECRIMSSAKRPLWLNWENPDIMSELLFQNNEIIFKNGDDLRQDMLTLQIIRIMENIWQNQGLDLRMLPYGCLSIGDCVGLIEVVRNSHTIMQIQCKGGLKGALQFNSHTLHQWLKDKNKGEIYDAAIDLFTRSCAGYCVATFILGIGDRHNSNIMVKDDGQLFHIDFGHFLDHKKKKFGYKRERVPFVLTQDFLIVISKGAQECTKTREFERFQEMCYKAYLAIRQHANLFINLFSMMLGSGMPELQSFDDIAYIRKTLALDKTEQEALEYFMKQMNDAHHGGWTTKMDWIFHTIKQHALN
T1 sequence (P27986 whole entry partner): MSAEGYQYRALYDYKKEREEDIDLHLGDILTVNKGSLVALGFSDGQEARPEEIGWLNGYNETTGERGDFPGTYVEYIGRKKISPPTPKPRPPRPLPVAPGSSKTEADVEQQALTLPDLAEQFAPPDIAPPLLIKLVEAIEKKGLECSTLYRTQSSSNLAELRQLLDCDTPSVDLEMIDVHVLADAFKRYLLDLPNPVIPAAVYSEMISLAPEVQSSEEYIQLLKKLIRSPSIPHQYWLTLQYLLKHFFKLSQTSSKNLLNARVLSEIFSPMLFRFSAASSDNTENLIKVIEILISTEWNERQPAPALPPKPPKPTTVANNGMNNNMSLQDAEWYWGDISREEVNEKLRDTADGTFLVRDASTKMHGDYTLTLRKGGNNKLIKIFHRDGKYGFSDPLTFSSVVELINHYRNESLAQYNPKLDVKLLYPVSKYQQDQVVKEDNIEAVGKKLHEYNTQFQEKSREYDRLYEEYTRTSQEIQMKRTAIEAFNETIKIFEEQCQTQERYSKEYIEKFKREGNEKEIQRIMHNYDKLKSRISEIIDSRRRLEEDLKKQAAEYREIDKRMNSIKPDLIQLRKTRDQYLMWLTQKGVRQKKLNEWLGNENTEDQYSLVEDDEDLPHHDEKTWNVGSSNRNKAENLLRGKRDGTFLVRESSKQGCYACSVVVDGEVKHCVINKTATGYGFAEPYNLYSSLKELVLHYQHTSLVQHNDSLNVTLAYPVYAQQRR

IC50	Compound
19 nM	NC(=O)c1cn2nc(-c3cnc(N)nc3)nc(N3CCOCC3)c2n1 [1-01]
3 nM	COCCNC(=O)c1cn2nc(-c3cnc(N)nc3)nc(N3CCOCC3)c2n1 [1-02]
29 nM and < 100 nM	COCCNC(=O)c1cc2c(N3CCOCC3)nc(-c3cnc(N)nc3)cn2n1 [1-03]
26 nM	Nc1ncc(-c2cn3nc(C(=O)NC4CCOCC4)cc3c(N3CCOCC3)n2)cn1 [1-04]
14 nM	NC(=O)c1cc2c(N3CCOCC3)nc(-c3cnc(N)nc3)cn2n1 [1-05, 6-(2-amino-pyrimidin-5-yl)-4-morpholin-4-yl-pyrazolo[1,5-a]pyrazine-2-carboxylic acid amide]
9 nM	Nc1ncc(-c2cn3nc(C(=O)N4CCCC4)cc3c(N3CCOCC3)n2)cn1 [1-07, [6-(2-amino-pyrimidin-5-yl)-4-morpholin-4-yl-pyrazolo[1,5-a]pyrazin-2-yl]-pyrrolidin-1-yl-methanone]
443 nM	CN(C)CCCNC(=O)c1cc2c(N3CCOCC3)nc(-c3cnc(N)nc3)cn2n1 [1-09, 6-(2-amino-pyrimidin-5-yl)-4-morpholin-4-yl-pyrazolo[1,5-a]pyrazine-2-carboxylic acid (3-dimethylamino-propyl)-amide]
16 nM	Nc1ncc(-c2cn3nc(C(=O)N[C@H]4CC[C@H](O)CC4)cc3c(N3CCOCC3)n2)cn1 [1-10, 6-(2-amino-pyrimidin-5-yl)-4-morpholin-4-yl-pyrazolo[1,5-a]pyrazine-2-carboxylic acid (4-hydroxy-cyclohexyl)-amide]
